{
  "source": "patent US20200138921A1",
  "about": "“METHODS OF PREVENTING AND TREATING DISEASES CHARACTERIZED BY SYNAPTIC DYSFUNCTION AND NEURODEGENERATION INCLUDING ALZHEIMER'S DISEASE” (The Trustees of Columbia University in the City of New York, priority 2017, published 2020)",
  "key": {"[1]": {"system": "Ephexin-1", "assay": "Levels or activities of Ephexin-1 in hippocampal neurons", "type": "cell-based, rat", "details": "hippocampal neurons treated with oAβ (results not shown)"}, "[2]": {"system": "Ube3A", "assay": "Ube3A levels in astrocyte-enriched cultures", "type": "cell-based, rat", "details": "astrocyte-enriched cultures treated with oAβ (results not shown)", "experimental": "Since Ube3A is also expressed in astrocytes (Grier et al. 2015), it was determined whether Ube3A levels were also altered in these cells."}, "[3]": {"system": "Ube3A mRNA", "assay": "qPCR of Ube3A mRNA in hippocampal neurons", "type": "cell-based, rat", "details": "oAβ for 24 hours (results not shown)", "experimental": "Neurons were lysed and total RNA was extracted using TRIzol reagent (Ambion) following the manufacturer's protocol. RNA concentration and purity were assessed by measuring the optical density at 260 and 280 nm with a NanoDrop (Thermo Scientific). cDNA was synthesized using the first-strand cDNA synthesis kit (Origene) with 1 μg of total RNA, following the manufacturer's instructions. Quantitative real-time PCR was performed using FastStart SYBR Green Master Mix (Roche) and an Eppendorf Realplex Mastercyler with the following cycle settings: 1 cycle at 95° C. for 10 min and 40 cycles of amplification, 95° C. for 15 s, 58-60° C. for 30-60 s, 72° C. for 30-60 s. The amounts of Ube3A mRNA were quantified and normalized to GAPDH mRNA using the following primer pairs: Ube3A forward 5′-[…]-3′ (SEQ ID NO: 3) and reverse 5′-[…]—3′ (SEQ ID NO: 4). The threshold cycles were determined and normalized to the threshold cycles of a GAPDH gene. Relative mRNAs levels for Ube3A were expressed as a fold induction in an experimental condition compared with a control condition.\nIn mammals, the Ube3A gene is subject to genomic imprinting, whereby only the maternal allele is expressed in neurons. The paternal allele is silenced through the expression of a Ube3A-antisense (Ube3A-ATS), transcribed as part of a large non-coding antisense transcript (Runte et al. 2001)."}, "[4]": {"system": "phospho-tau", "assay": "Western blot of phospho-tau in J20 mice", "type": "in vivo", "details": "TOP treated J20 mice vs control J20", "source_text": "All chemicals used were of the highest grade available. Antibodies used include the following: rabbit anti-Ube3A (Cell Signaling), mouse anti-RhoA (Santa Cruz), rabbit anti-Arc (Santa Cruz), mouse anti-GluR1 (Millipore), rabbit anti-Ephexin-5 (Pierce and Abcam), rabbit anti-phospho-c-Abl (Cell Signaling), rabbit anti-GAPDH (Cell Signaling), rabbit anti-HA (Cell Signaling), anti-PSD95 (Cell Signaling), rabbit anti-NMDAR1 (Millipore), and anti-phospho-tau PHF13 (Cell Signaling).\n(§1) Whole frozen mouse hippocampi, human brain specimens, and cultured cells were homogenized in RIPA buffer (ThermoFisher) supplemented with protease and phosphatase inhibitor cocktail (ThermoFisher), using a Teflon dounce homogenizer and centrifuged at 14,000 rpm for 10 minutes at 4° C. Supernatants were collected, normalized by BCA assay (ThermoFisher), and prepared for loading using sample buffer (SB) 4× (ThermoFisher) and dithiothreitol (DTT) 10× (ThermoFisher)."}, "[5]": {"system": "wild-type mice", "assay": "Morris water maze in wild-type mice", "type": "in vivo", "details": "single TOP injection 275 μg, vs PBS-injected mice", "experimental": "Mice were trained to find a hidden platform in a circular pool of 1.10 m diameter located in a room with extra maze cues. The location of the platform ([…] diameter) was constant for each mouse during training and was placed 1 cm beneath the surface of the water, maintained at 24° C.±2° C. throughout the duration of the test. At the end of test, the mice were dried off and placed in a clean cage with extra paper towels to prevent hypothermia Animals were then monitored inside their cage until eating, drinking, and ambulating normally Mice were trained in sessions consisting of four trials a day for five consecutive days. Mice started from different quadrants on a random basis during each trial and all four quadrants were used on any given day. The maximum swimming time allowed on each trial was 60 seconds.\nProbe trials (1 session: 1 trials/session) were conducted 24 hours after the last training trial. During the probe test the platform was removed and mice were free to swim in the pool for 60 seconds. Time spent in each quadrant was measured. Trial and probe test sessions were recorded and analyzed with a video tracking system (Noldus). After the probe, mice were tested in the visible test for two consecutive days, 2 sessions/day with 3 trials/session to assess whether the mice were able to locate a visible platform (its location varied between the three trials of the same session). […]"}, "[6]": {"details": "usual marketed dosages, daily for five days or weekly; cited from earlier work"}, "[7]": {"system": "wild-type mice", "assay": "Dendritic spine density in hippocampus of wild-type mice", "type": "in vivo", "details": "single TOP injection 275 μg", "experimental": "(§2) The protocol for diolistic labeling of neurons was adapted from Gan et al. 2000 and Gan et al. 2009. Briefly, 100 mg of tungsten particles (1.1 μm diameter; Bio-Rad) were thoroughly precipitated with 5.0 mg of lipophilic dye (DiI; ThermoFisher) and dissolved in 100 μl of methylene chloride. Dye-coated particles were shot 2-3 times into the cells using the Helios gene gun system (Bio-Rad) and left in 0.1 M PBS overnight to allow dye diffusion along neuronal processes. Cells were post-fixed with 4% paraformaldehyde (Pierce) for 1 hour to preserve staining, then mounted onto glass slides using Gel Mount (Biomeda) and stored at 4° C. in the dark.\n(§3) Labeled neurons were imaged using the Laser Scanning Microscope (LSM) 510 Meta confocal microscope (Zeiss), equipped with 40×1.3 NA and 100×1.4 NA oil-immersion objectives. The NIH Image software program ImageJ was used the quantify diolistic-labeled cultured neurons. An average of 12 compressed images (20 μm thick) consisting of pyramidal neurons were quantified for each treatment. Spines were counted with NeuronStudio software in a blinded manner and spine density was represented in number of spine per μm dendritic length. Statistical analysis was performed using the statistics package GraphPad Prism.\nControls were wild type mice injected with PBS."}, "[8]": {"system": "J20 mice", "assay": "Dendritic spine density in hippocampus of J20 mice", "type": "in vivo", "details": "single TOP injection 275 μg", "experimental": "as §2, §3\nControls were wild-type mice and J20 mice injected with PBS."}, "[9]": {"system": "PSD95", "assay": "Western blot of PSD95 in hippocampal neurons", "type": "cell-based, rat", "details": "neurons pretreated with 300 nM TOP, oAβ for 24 hours", "experimental": "as §1\nTo further test whether increasing Ube3A could rescue the effects of oAβ, cultured primary hippocampal neurons (14 DIV) were pretreated with 300 nM of TOP or control PBS. The neurons were then treated with oAβ for 24 hours, and whole cell lysates prepared for Western blot analysis, or fixed for microscopy.\nCells were also assessed for localization of PSD95 and NMDAR1, markers of postsynaptic terminals. Cells treated with TOP had increased levels of PSD95 and NMDAR1 (FIGS. 11B and 11C)."}},
  "data": [
    {"compound": "oAβ: synthetic soluble oligomeric Aβ1-42", "values": [
      {"measurement": "levels or activities of Ephexin-1", "setting": "[1]", "result": "no observation of any differences"},
      {"measurement": "Ube3A levels", "setting": "[2]", "result": "modest, but significant increase"},
      {"measurement": "levels of Ube3A mRNA", "setting": "[3]", "result": "did not show any differences"}
    ]},
    {"compound": "CC[C@@]1(O)C(=O)OCc2c1cc1n(c2=O)Cc2cc3c(CN(C)C)c(O)ccc3nc2-1", "note": "[TOP, topotecan]", "values": [
      {"measurement": "phospho-tau levels", "setting": "[4]", "result": "decreased"},
      {"measurement": "memory (Morris Water Maze)", "setting": "[5]", "result": "significant enhancement"},
      {"measurement": "hematologic toxicity", "setting": "[6]", "result": "reversible manageable"},
      {"measurement": "nonhematologic toxicity", "setting": "[6]", "result": "mild"},
      {"measurement": "dendritic spine density", "setting": "[7]", "result": "significant increase"},
      {"measurement": "dendritic spine density", "setting": "[8]", "result": "significant increase"},
      {"measurement": "levels of PSD95", "setting": "[9]", "result": "increased"}
    ]}
  ]
}
